{"source": "ChEMBL document CHEMBL1151289", "about": "“Biosynthesis of ganefromycin: results from blocked mutants and bioconversion experiments” (1998)", "system": "Priestia megaterium", "experiment": "Antimicrobial activity against Bacillus megaterium", "type": "functional", "data": [{"smiles": "C/C=C\\C=C\\[C@@H]1O[C@](O)([C@H](CO[C@@H]2O[C@@H](C)[C@@H](C)[C@@H](O[C@@H]3C[C@@H](OC)[C@@H](O)[C@H](C)O3)[C@H]2OC)C(=O)NC/C=C/C=C(\\C)C(OC)C(C)C2CC(O)C(/C=C/C=C/C=C/C(=O)O)O2)C[C@H](O)C1(C)C", "note": "(stereo not given in full)", "values": [{"measurement": "MIC", "value": 12.6, "unit": "µg/mL"}]}, {"smiles": "C/C=C\\C=C\\[C@@H]1O[C@](O)([C@H](CO[C@H]2C[C@H](O)[C@H](O)[C@H](C)O2)C(=O)NC/C=C/C=C(\\C)C(OC)C(C)C2CC(O)C(/C=C/C=C/C=C/C(=O)O)O2)[C@H](OC(=O)Cc2ccccc2)[C@H](O)C1(C)C", "note": "(stereo not given in full)", "values": [{"measurement": "MIC", "value": 12.5, "unit": "µg/mL"}]}, {"smiles": "C/C=C\\C=C\\[C@@H]1O[C@](O)([C@H](C)C(=O)NC/C=C/C=C(\\C)C(O)C(C)C2CC(O)C(/C=C/C=C/C=C/C(=O)O)O2)[C@H](O)[C@H](O)C1(C)C", "note": "(stereo not given in full)", "values": [{"measurement": "MIC", "value": 100, "unit": "µg/mL"}]}, {"smiles": "C/C=C\\C=C\\[C@@H]1O[C@](O)([C@H](C)C(=O)NC/C=C/C=C(\\C)C(OC)C(C)C2CC(O)C(/C=C/C=C/C=C/C(=O)O)O2)[C@H](OC(=O)Cc2ccccc2)[C@H](O)C1(C)C", "note": "(stereo not given in full)", "values": [{"measurement": "MIC", "value": 12.5, "unit": "µg/mL"}]}, {"smiles": "C/C=C\\C=C\\[C@@H]1O[C@](O)([C@H](C)C(=O)NC/C=C/C=C(\\C)C(OC)C(C)C2CC(O)C(/C=C/C=C/C=C/C(=O)O)O2)[C@H](O)[C@H](O)C1(C)C", "note": "(stereo not given in full)", "values": [{"measurement": "MIC", "value": 6.3, "unit": "µg/mL"}]}, {"smiles": "C/C=C\\C=C\\[C@@H]1O[C@](O)([C@H](CO)C(=O)NC/C=C/C=C(\\C)C(OC)C(C)C2CC(O)C(/C=C/C=C/C=C/C(=O)O)O2)[C@H](O)[C@H](O)C1(C)C", "note": "(stereo not given in full)", "values": [{"measurement": "MIC", "value": 50, "unit": "µg/mL"}]}, {"smiles": "C/C=C\\C=C\\[C@@H]1O[C@](O)([C@H](C)C(=O)NC/C=C/C=C(\\C)C(O)C(C)C2CC(O)C(/C=C/C=C/C=C/C(=O)O)O2)C[C@H](O)C1(C)C", "note": "(stereo not given in full)", "values": [{"measurement": "MIC", "value": "> 100", "unit": "µg/mL"}]}, {"smiles": "C/C=C\\C=C\\[C@@H]1O[C@](O)([C@H](CO[C@H]2C[C@H](OC)[C@H](O[C@@H]3C[C@@H](OC)[C@@H](O[C@H]4C[C@H](OC)[C@H](O)[C@H](C)O4)[C@H](C)O3)[C@H](C)O2)C(=O)NC/C=C/C=C(\\C)C(OC)C(C)C2CC(O)C(/C=C/C=C/C=C/C(=O)O)O2)C[C@H](O)C1(C)C", "note": "(stereo not given in full)", "values": [{"measurement": "MIC", "value": 6.3, "unit": "µg/mL"}]}, {"smiles": "C/C=C\\C=C\\[C@@H]1O[C@](O)([C@@H](CO[C@H]2C[C@H](OC)[C@H](O[C@@H]3C[C@@H](OC)[C@@H](O[C@H]4C[C@H](OC)[C@H](O)[C@H](C)O4)[C@H](C)O3)[C@H](C)O2)C(=O)NC/C=C/C=C(\\C)C(OC)C(C)C2CC(O)C(/C=C/C=C/C=C/C(=O)O)O2)C[C@H](O)C1(C)C", "note": "(stereo not given in full)", "values": [{"measurement": "MIC", "value": 6.3, "unit": "µg/mL"}]}, {"smiles": "C/C=C\\C=C\\[C@@H]1O[C@](O)([C@H](CO[C@H]2C[C@H](O)[C@H](O)[C@H](C)O2)C(=O)NC/C=C/C=C(\\C)C(OC)C(C)C2CC(O)C(/C=C/C=C/C=C/C(=O)O)O2)[C@H](O)[C@H](O)C1(C)C", "note": "(stereo not given in full)", "values": [{"measurement": "MIC", "value": 100, "unit": "µg/mL"}]}, {"smiles": "C/C=C\\C=C\\[C@@H]1O[C@](O)([C@@H](C)C(=O)NC/C=C/C=C(\\C)C(O)C(C)C2CC(O)C(/C=C/C=C/C=C/C(=O)O)O2)C[C@H](O)C1(C)C", "note": "(stereo not given in full)", "values": [{"measurement": "MIC", "value": "> 100", "unit": "µg/mL"}]}, {"smiles": "C/C=C\\C=C\\[C@@H]1O[C@](O)([C@H](CO[C@H]2C[C@H](O)[C@H](O)[C@H](C)O2)C(=O)NC/C=C/C=C(\\C)C(OC)C(C)C2CC(O)C(/C=C/C=C/C=C/C(=O)O)O2)[C@H](O)[C@H](OC(=O)Cc2ccccc2)C1(C)C", "note": "(stereo not given in full)", "values": [{"measurement": "MIC", "value": 50, "unit": "µg/mL"}]}, {"smiles": "C/C=C\\C=C\\[C@@H]1O[C@](O)([C@H](CO[C@H]2C[C@H](OC)[C@H](O[C@@H]3C[C@@H](OC)[C@@H](O[C@H]4C[C@H](OC)[C@H](O)[C@H](C)O4)[C@H](C)O3)[C@H](C)O2)C(=O)NC/C=C/C=C(\\C)C(OC)C(C)C(=O)CC(O)C/C=C/C=C/C=C/C(=O)O)C[C@H](O)C1(C)C", "note": "(stereo not given in full)", "values": [{"measurement": "MIC", "value": 3.1, "unit": "µg/mL"}]}, {"smiles": "C/C=C\\C=C\\[C@@H]1O[C@](O)([C@@H](CO[C@@H]2O[C@@H](C)[C@@H](C)[C@@H](O[C@@H]3C[C@@H](OC)[C@@H](O)[C@H](C)O3)[C@H]2OC)C(=O)NC/C=C/C=C(\\C)C(OC)C(C)C2CC(O)C(/C=C/C=C/C=C/C(=O)O)O2)C[C@H](O)C1(C)C", "note": "(stereo not given in full)", "values": [{"measurement": "MIC", "value": 12.6, "unit": "µg/mL"}]}, {"smiles": "C/C=C\\C=C\\[C@@H]1O[C@](O)([C@H](CO[C@H]2C[C@H](OC)[C@H](O[C@@H]3C[C@@H](OC)[C@@H](O[C@H]4C[C@H](OC)[C@H](O)[C@H](C)O4)[C@H](C)O3)[C@H](C)O2)C(=O)NC/C=C/C=C(\\C)C(OC)C(C)C2CC(O)C(/C=C/C=C/C=C/C(=O)O)O2)[C@H](OC(=O)Cc2ccccc2)[C@H](O)C1(C)C", "note": "(stereo not given in full)", "values": [{"measurement": "MIC", "value": 0.4, "unit": "µg/mL"}]}]}
